# Assays:
# [1] = Metabolic stability test in human liver; format: in vitro ADME; details: liver microsomes, pH 7.4; human liver microsome 1 mg protein/mL, test compound 1 μM, 37° C.
# Method: Using human liver microsome (Xenotech, H0630), the in vitro metabolic half-life was calculated. A reaction solution (300 μL) was prepared to contain a test compound at 1 μM in 250 mM Na—K-phosphate buffer (pH 7.4) containing, at final concentrations, 2.4 mM MgCl2, 1.5 mM glucose-6-phosphate (G-6-P), 0.18 U/mL glucose-6-phosphate dehydrogenase (G-6-P DH), 69 mM KCl, 0.16 mM (3-nicotinamide-adenine dinucleotide phosphate, oxidized form (NADP) and 1 mg microsomal protein/mL. After pre-incubation at 37° C. for 5 minutes, the NADP solution was added to initiate the reaction. The incubation time was set to 0, 10, 20, 30, 45 or 60 minutes. The reaction was stopped by addition of a CH3CN:CH3OH (1:1) solution in the same volume as that of the reaction solution. The sample after the reaction was centrifuged at 3639×g at 4° C. for 10 minutes, and the resulting supernatant was analyzed by LC/MS. Using the time period during which linearity was observed, the metabolic half-life was calculated from the slope.
# [2] = molecular target: T1, human H3 receptor (Homo sapiens, UniProt Q9Y5N1); assay: H3 receptor binding test (R(−)-α-methyl[3H]histamine); parameters: purchased Euroscreen ES-392-M; host or cells: CHO-K1; details: inhibition of R(−)-α-methyl[3H]histamine (2 nM) binding, membrane of human H3 receptor-expressing CHO-K1 cells
# T1 sequence (Q9Y5N1 whole entry): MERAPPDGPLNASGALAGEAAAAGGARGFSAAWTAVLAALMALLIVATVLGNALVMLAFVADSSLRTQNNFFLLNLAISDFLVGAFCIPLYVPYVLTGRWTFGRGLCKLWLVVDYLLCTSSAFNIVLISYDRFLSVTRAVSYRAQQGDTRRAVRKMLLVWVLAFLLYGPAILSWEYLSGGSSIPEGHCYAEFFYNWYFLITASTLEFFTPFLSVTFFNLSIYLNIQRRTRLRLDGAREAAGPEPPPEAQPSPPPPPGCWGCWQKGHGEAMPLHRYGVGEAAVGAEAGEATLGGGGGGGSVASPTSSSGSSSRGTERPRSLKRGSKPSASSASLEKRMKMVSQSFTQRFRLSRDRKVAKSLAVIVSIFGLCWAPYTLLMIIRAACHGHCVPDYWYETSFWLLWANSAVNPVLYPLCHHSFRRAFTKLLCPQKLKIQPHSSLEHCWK
# Method: A membrane preparation of human H3 receptor-expressing CHO-K1 cells (Euroscreen, ES-392-M, 15 μg protein/200 μl), R(−)-α-methyl[^3H]histamine (Amersham, TRK-1017, specific activity: 1.74 TBq/mmol, 2 nM) and a test drug were reacted at room temperature for 1 hour. After completion of the reaction, the reaction mixture was subjected to suction filtration through a 0.3% polyethyleneimine-treated glass filter (GF/C). The glass filter was washed five times with 50 mM Tris-HCl washing solution (pH 7.4) containing 5 mM EDTA. After washing, the glass filter was dried and a scintillator was added thereto, followed by measurement of radioactivity on the filter using a liquid scintillation counter.
# A fixed concentration (2 nM) of R(−)-α-methyl[^3H]histamine was reacted under the above conditions with each test drug at various concentrations to obtain an inhibition curve.
# [3] = molecular target: T1, human H3 receptor; assay: [35S]GTP-γ-S binding test
# Method: After completion of the reaction, [^35S]GTP-γ-S (0.2 nM) was added and reacted for an additional 30 minutes. After completion of the reaction, the reaction mixture was subjected to suction filtration through a glass filter (GF/C). The glass filter was washed three times with 20 mM HEPES washing solution (pH 7.4) containing 100 mM sodium chloride and 1 mM magnesium chloride. After washing, the glass filter was dried and a scintillator was added thereto, followed by measurement of radioactivity on the filter using a liquid scintillation counter.
# Binding of [^35S]GTP-γ-S in the absence of R(−)-α-methylhistamine was defined as non-specific binding, and the difference between total binding in the presence of R(−)-α-methylhistamine and non-specific binding was defined as specific binding of [^35S]GTP-γ-S. Fixed concentrations of [^35S]GTP-γ-S (0.2 nM) and R(−)-α-methylhistamine (100 μM) were reacted under the above conditions with each test drug at various concentrations to obtain an inhibition curve.
# [4] = molecular target: T2, σ1 receptor (Homo sapiens, UniProt Q99720); assay: [3H](+)pentazocine binding test; details: [3H](+)pentazocine 8 nM, Jurkat cell membrane
# T2 construct: host or cells: Jurkat cells (membrane)
# T2 sequence (Q99720 whole entry): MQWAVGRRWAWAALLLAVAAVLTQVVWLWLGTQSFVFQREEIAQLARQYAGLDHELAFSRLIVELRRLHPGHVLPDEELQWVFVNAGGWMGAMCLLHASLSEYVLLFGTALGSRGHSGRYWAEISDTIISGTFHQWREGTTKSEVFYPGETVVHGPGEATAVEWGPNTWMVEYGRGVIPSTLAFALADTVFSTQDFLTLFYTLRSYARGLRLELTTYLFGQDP
# Method: Affinity for σ1 receptor was evaluated in a [^3H](+)pentazocine binding test by Cerep, Inc. The σ1 receptor preparation used was the membrane of Jurkat cells. The Jurkat cell membrane was incubated with [^3H](+)pentazocine (8 nM) at 22° C. for 120 minutes.
# [5] = system: CHL/IU cells; assay: Cytotoxicity test; format: cell-based, Chinese hamster; details: 48 hours culture, Cell counting kit-8
# Method: Chinese hamster lung fibroblast-derived CHL/IU cells (DS Pharma Biomedical Co., Ltd., Japan) were seeded, and the medium was replaced on the following day by another medium (MEM+2 mM L-Glutamine+10% CS (all purchased from Invitrogen)) containing a test compound at various concentrations, followed by culture for an additional 48 hours. Using a Cell counting kit-8 (Dojindo Laboratories, Japan), the survival rate of the cells was determined to obtain a curve whose horizontal axis represents the test compound concentration and whose vertical axis represents the survival rate. The curve thus obtained was used to determine the concentration of the test compound at which the survival rate was 50%. As a result, this concentration was 275, 441 and >640 mmol/L for the compounds of Examples 56, 62 and 70, respectively.
# [6] = Distribution test in rats; format: in vivo, rat; details: SD rats, single oral dose 3 mg/kg (2.75 mg/kg as a free form); plasma and organs at 1, 2, 4, 8 and 24 hours
# Method: SD rats were used and orally administered once with the compound of Example 70 at a dose of 3 mg/kg (2.75 mg/kg as a free form) to confirm the tissue distribution of the compound in plasma, brain, liver, kidney, spleen, lung, heart, muscle, fat, testis, bone marrow and adrenal gland at 1, 2, 4, 8 and 24 hours after administration. For quantification, high performance liquid chromatography/tandem mass spectrometry (LC-MS/MS) was used.
# [7] = molecular target: human recombinant μ receptor (Homo sapiens, UniProt P35372); assay: [3H]diprenorphine binding test; details: read-out: % Inhibition (10 μM), μ receptor
# Chain of human recombinant μ receptor (P35372 whole entry): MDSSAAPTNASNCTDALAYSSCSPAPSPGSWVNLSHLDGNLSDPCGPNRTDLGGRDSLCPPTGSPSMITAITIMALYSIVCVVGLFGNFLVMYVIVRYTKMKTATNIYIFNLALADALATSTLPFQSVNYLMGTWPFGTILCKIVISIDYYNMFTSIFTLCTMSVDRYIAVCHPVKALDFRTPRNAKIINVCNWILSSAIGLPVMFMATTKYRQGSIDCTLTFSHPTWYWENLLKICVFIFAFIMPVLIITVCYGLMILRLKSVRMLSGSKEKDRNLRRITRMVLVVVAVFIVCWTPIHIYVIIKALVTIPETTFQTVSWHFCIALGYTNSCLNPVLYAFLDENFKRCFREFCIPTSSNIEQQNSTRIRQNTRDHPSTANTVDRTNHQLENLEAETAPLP
# [8] = system: Sprague-Dawley rats; assay: Social recognition test; format: in vivo, rat
# Method: This experiment was performed with Sprague-Dawley rats (male) according to the reported method (Shimazaki et al., European Journal of Pharmacology, 575, 94-97, 2007). Adult rats (9 weeks of age) were placed in a test cage and acclimated for 30 minutes. After 30 minutes, juvenile rats (4 weeks of age) were placed in the same test cage containing the adult rats, and allowed to stand for 5 minutes. During this 5 minutes, the time taken for the adult rats to show social behavior (sniffing, grooming, following) to the juvenile rats was measured (first exploratory time). Then, the rats were removed from the test cage and returned to their respective home cages. After 85 minutes, the adult rats were placed again in the test cage and acclimated for 30 minutes. The same juvenile rats as used in the first exploratory were placed in the test cage, followed by measuring the time taken for the adult rats to show social behavior (sniffing, grooming, following) to the juvenile rats during 5 minutes (second exploratory time). The social recognition was expressed as the ratio of second exploratory time/first exploratory time. A test substance (the compound of Example 70) was orally administered to the adult rats immediately after their first social behavior.
# [9] = molecular target: T3, human recombinant δ receptor (Homo sapiens, UniProt P41143); assay: [3H]DADLE binding test; details: [3H]DADLE 0.5 nM
# T3 construct: Cerep, Inc. (contract assay)
# T3 sequence (P41143 whole entry): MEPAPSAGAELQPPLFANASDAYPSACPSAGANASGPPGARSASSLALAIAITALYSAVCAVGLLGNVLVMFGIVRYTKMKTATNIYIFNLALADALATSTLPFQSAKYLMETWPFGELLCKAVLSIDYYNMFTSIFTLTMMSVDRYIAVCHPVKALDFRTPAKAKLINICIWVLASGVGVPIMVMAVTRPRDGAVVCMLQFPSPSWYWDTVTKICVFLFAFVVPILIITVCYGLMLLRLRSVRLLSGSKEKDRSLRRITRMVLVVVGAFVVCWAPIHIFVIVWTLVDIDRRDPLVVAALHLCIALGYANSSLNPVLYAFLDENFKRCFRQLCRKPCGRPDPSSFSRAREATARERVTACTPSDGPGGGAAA
# Method: Affinity for δ receptor was evaluated in a [^3H]DADLE binding test by Cerep, Inc. The δ receptor preparation used was human recombinant δ receptor. The human recombinant δ receptor was incubated with [^3H]DADLE (0.5 nM) at 22° C. for 120 minutes.
# [10] = molecular target: T4, rat recombinant κ receptor (Rattus norvegicus, UniProt P34975); assay: [3H]U69593 binding test; details: [3H]U69593 1 nM
# T4 construct: Cerep, Inc. (contract assay)
# T4 sequence (P34975 whole entry): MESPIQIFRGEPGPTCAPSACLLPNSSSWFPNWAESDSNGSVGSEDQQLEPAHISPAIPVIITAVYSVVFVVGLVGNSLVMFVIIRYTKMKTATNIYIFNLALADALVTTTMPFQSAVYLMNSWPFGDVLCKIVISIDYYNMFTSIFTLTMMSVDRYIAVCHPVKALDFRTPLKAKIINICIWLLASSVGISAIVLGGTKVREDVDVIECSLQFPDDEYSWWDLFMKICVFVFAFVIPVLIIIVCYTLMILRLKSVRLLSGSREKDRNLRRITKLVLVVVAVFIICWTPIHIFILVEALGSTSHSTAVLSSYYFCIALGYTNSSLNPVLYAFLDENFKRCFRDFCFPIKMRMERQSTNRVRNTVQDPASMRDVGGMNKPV
# Method: Affinity for κ receptor was evaluated in a [^3H]U69593 binding test by Cerep, Inc. The κ receptor preparation used was rat recombinant κ receptor. The rat recombinant κ receptor was incubated with [^3H]U69593 (1 nM) at 22° C. for 60 minutes.
IC50 [2] [nM],inhibition at 10 µM [4] [%],SMILES,concentration of the test compound at which the survival rate was 50% [5] [µM],further results
,,"C[C@@H]1CCCN1CCCOc1ccc(-n2cc(C(=O)N3CCOCC3)cn2)cc1 [Example 6, 4-{[1-(4-{3-[(2R)-2-methylpyrrolidin-1-yl]propoxy}phenyl)-1H-pyrazol-4-yl]carbonyl}morpholine]",,half-life at 1 μM [1]: ≥ 3 h
3.3,,"C[C@@H]1CCCN1CCCOc1ccc(-n2cc(N3CCCC3=O)cn2)cc1 [Example 30, 1-[1-(4-{3-[(2R)-2-methylpyrrolidin-1-yl]propoxy}phenyl)-1H-pyrazol-4-yl]pyrrolidine-2-one]",,IC50 [3]: 1.7 nM
4.1,39,"C[C@@H]1CCCN1CCCOc1ccc(-n2cc(C(=O)N3CCCOCC3)cn2)cc1 [Example 54, [1-(4-{3-[(2R)-2-methylpyrrolidin-1-yl]propoxy}phenyl)-1H-pyrazol-4-yl](1,4-oxazepan-4-yl)methanone]",,
5.2,3,"C[C@@H]1CCCN1CCCOc1ccc(-n2cc(C(=O)N3CCN(C)CC3)cn2)cc1 [Example 55, (4-methylpiperazin-1-yl)[1-(4-{3-[(2R)-2-methylpyrrolidin-1-yl]propoxy}phenyl)-1H-pyrazol-4-yl]methanone]",,
2.8,,"C[C@@H]1CCCN1CCCOc1ccc(-n2cc(C(=O)N3CCCC3)cn2)cc1 [Example 56, [1-(4-{3-[(2R)-2-methylpyrrolidin-1-yl]propoxy}phenyl)-1H-pyrazol-4-yl](pyrrolidin-1-yl)methanone]",275000,
8.7,,"C[C@@H]1CCCN1CCCOc1ccc(-n2cc(C(=O)N3CCOCC3)cn2)cc1F [Example 62, [1-(3-fluoro-4-{3-[(2R)-2-methylpyrrolidin-1-yl]propoxy}phenyl)-1H-pyrazol-4-yl](morpholin-4-yl)methanone]",441000,

SMILES,IC50 [2] [nM],inhibition at 10 µM [4] [%],concentration of the test compound at which the survival rate was 50% [5] [µM],further results
"C[C@@H]1CCCN1CCCOc1ccc(-n2cc(C(=O)N3CCOCC3)cn2)cc1.Cl [Example 70, 4-{[1-(4-{3-[(2R)-2-methylpyrrolidin-1-yl]propoxy}phenyl)-1H-pyrazol-4-yl]carbonyl}morpholine monohydrochloride]",,28,> 640000,"tissue distribution of unchanged form and major metabolites [6]: rapidly disappear from each organ; inhibition at 10 µM [7]: 3%; effect on cognitive functions ([8]; 10 mg/kg oral, rats, compared to vehicle group): had an enhancing effect on cognitive functions; Ratio (second exploratory time/first exploratory time) ([8]; 10 mg/kg orally to adult rats immediately after first social behavior, n = 18, p<0.01 vs vehicle): 0.66 ± 0.06^p<0.01; inhibition at 10 µM [9]: -1%; inhibition at 10 µM [10]: 17%"

# — patent publication US8183387B2, “Phenylpyrazole derivatives” (Taisho Pharmaceutical Co., Ltd, priority 2007, dated 2012)
